Source: PubChem BioAssay AID1259407 (Chemical Carcinogenesis Research Information System (CCRIS), 2018)
Activity calls are given as the source filed them. How the calls were made is not given here.

Test system: CCRIS mutagenicity, Ames/micronucleus/aberration tests
Assay: CCRIS mutagenicity studies

`O=C(O)CNCP(=O)(O)O` was tested, and the mutagenic call (End Point: IN VITRO MICRONUCLEUS, Test System: BOVINE LYMPHOCYTES, Metabolic Activation: NONE) was “inactive; negative”, the mutagenic call (End Point: IN VIVO CHROMOSOMAL ABERRATIONS, Test System: BONE MARROW ERYTHROCYTES, Species: RABBIT, Strain/Sex: NEW ZEALAND/MALE, Route: DRINKING WATER) was “active; positive (structural changes and ploidy)” and the mutagenic call (End Point: IN VIVO MICRONUCLEUS, Test System: BONE MARROW POLYCHROMATIC ERYTHROCYTES, Species: MOUSE, Strain/Sex: SWISS/MALE, FEMALE, Route: IP 2X IN AQUEOUS SUSPENSION WITHIN 24 HR) was “inactive; negative”. The mutagenic call (End Point: In vitro chromosomal aberrations, Test System: Bovine peripheral lymphocytes, Metabolic Activation: None) was “inactive; negative”, the mutagenic call (End Point: In vivo micronucleus, Test System: Bone marrow erythrocytes, Species: Mouse, Strain/Sex: Balb C/Male, female, Route: Intraperitoneal injection) was “active; positive (highest dose only)” and the mutagenic call (Test System: AMES SALMONELLA TYPHIMURIUM, Strain/Indicator: TA97, Metabolic Activation: HAMSTER, LIVER, S-9, AROCLOR 1254 (10%), Method: PREINCUBATION) was “inactive; negative”. For the same molecule, the mutagenic call (Test System: AMES SALMONELLA TYPHIMURIUM, Strain/Indicator: TA97, Metabolic Activation: HAMSTER, LIVER, S-9, AROCLOR 1254 (30%), Method: PREINCUBATION) was “inactive; negative”, the mutagenic call (Test System: AMES SALMONELLA TYPHIMURIUM, Strain/Indicator: TA97, Metabolic Activation: NONE, Method: PREINCUBATION) was “inactive; negative” and the mutagenic call (Test System: AMES SALMONELLA TYPHIMURIUM, Strain/Indicator: TA97, Metabolic Activation: RAT, LIVER, S-9, AROCLOR 1254 (10%), Method: PREINCUBATION) was “inactive; negative”. For the same molecule, the mutagenic call (Test System: AMES SALMONELLA TYPHIMURIUM, Strain/Indicator: TA97, Metabolic Activation: RAT, LIVER, S-9, AROCLOR 1254 (30%), Method: PREINCUBATION) was “inactive; negative”, the mutagenic call (Test System: AMES SALMONELLA TYPHIMURIUM, Strain/Indicator: TA98, Metabolic Activation: HAMSTER, LIVER, S-9, AROCLOR 1254 (10%), Method: PREINCUBATION) was “inactive; negative” and the mutagenic call (Test System: AMES SALMONELLA TYPHIMURIUM, Strain/Indicator: TA98, Metabolic Activation: HAMSTER, LIVER, S-9, AROCLOR 1254 (30%), Method: PREINCUBATION) was “inactive; negative”. For the same molecule, the mutagenic call (Test System: AMES SALMONELLA TYPHIMURIUM, Strain/Indicator: TA98, Metabolic Activation: NONE, Method: PREINCUBATION) was “inactive; negative”, the mutagenic call (Test System: AMES SALMONELLA TYPHIMURIUM, Strain/Indicator: TA98, Metabolic Activation: NONE, Method: STANDARD PLATE) was “inactive; negative” and the mutagenic call (Test System: AMES SALMONELLA TYPHIMURIUM, Strain/Indicator: TA98, Metabolic Activation: RAT, LIVER, S-9, AROCLOR 1254 (10%), Method: PREINCUBATION) was “inactive; negative”. The mutagenic call (Test System: AMES SALMONELLA TYPHIMURIUM, Strain/Indicator: TA98, Metabolic Activation: RAT, LIVER, S-9, AROCLOR 1254 (30%), Method: PREINCUBATION) was “inactive; negative”, the mutagenic call (Test System: AMES SALMONELLA TYPHIMURIUM, Strain/Indicator: TA98, Metabolic Activation: RAT, LIVER, S-9, AROCLOR 1254, Method: STANDARD PLATE) was “inactive; negative” and the mutagenic call (Test System: AMES SALMONELLA TYPHIMURIUM, Strain/Indicator: TA98, Metabolic Activation: S-9, AROCLOR 1254, Method: STANDARD PLATE) was “inactive; negative”. The mutagenic call (Test System: AMES SALMONELLA TYPHIMURIUM, Strain/Indicator: TA100, Metabolic Activation: HAMSTER, LIVER, S-9, AROCLOR 1254 (10%), Method: PREINCUBATION) was “inactive; negative”, the mutagenic call (Test System: AMES SALMONELLA TYPHIMURIUM, Strain/Indicator: TA100, Metabolic Activation: HAMSTER, LIVER, S-9, AROCLOR 1254 (30%), Method: PREINCUBATION) was “inactive; negative” and the mutagenic call (Test System: AMES SALMONELLA TYPHIMURIUM, Strain/Indicator: TA100, Metabolic Activation: NONE, Method: PREINCUBATION) was “inactive; negative”. For the same molecule, the mutagenic call (Test System: AMES SALMONELLA TYPHIMURIUM, Strain/Indicator: TA100, Metabolic Activation: NONE, Method: STANDARD PLATE) was “inactive; negative”, the mutagenic call (Test System: AMES SALMONELLA TYPHIMURIUM, Strain/Indicator: TA100, Metabolic Activation: RAT, LIVER, S-9, AROCLOR 1254 (10%), Method: PREINCUBATION) was “inactive; negative” and the mutagenic call (Test System: AMES SALMONELLA TYPHIMURIUM, Strain/Indicator: TA100, Metabolic Activation: RAT, LIVER, S-9, AROCLOR 1254 (30%), Method: PREINCUBATION) was “inactive; negative”. The mutagenic call (Test System: AMES SALMONELLA TYPHIMURIUM, Strain/Indicator: TA100, Metabolic Activation: RAT, LIVER, S-9, AROCLOR 1254, Method: STANDARD PLATE) was “inactive; negative”, the mutagenic call (Test System: AMES SALMONELLA TYPHIMURIUM, Strain/Indicator: TA100, Metabolic Activation: S-9, AROCLOR 1254, Method: STANDARD PLATE) was “active; positive” and the mutagenic call (Test System: AMES SALMONELLA TYPHIMURIUM, Strain/Indicator: TA1535, Metabolic Activation: HAMSTER, LIVER, S-9, AROCLOR 1254 (10 OR 30%), Method: PREINCUBATION) was “inactive; negative”. The mutagenic call (Test System: AMES SALMONELLA TYPHIMURIUM, Strain/Indicator: TA1535, Metabolic Activation: NONE, Method: PREINCUBATION) was “inactive; negative”, the mutagenic call (Test System: AMES SALMONELLA TYPHIMURIUM, Strain/Indicator: TA1535, Metabolic Activation: NONE, Method: STANDARD PLATE) was “inactive; negative” and the mutagenic call (Test System: AMES SALMONELLA TYPHIMURIUM, Strain/Indicator: TA1535, Metabolic Activation: RAT, LIVER, S-9, AROCLOR 1254 (10 OR 30%), Method: PREINCUBATION) was “inactive; negative”. The mutagenic call (Test System: AMES SALMONELLA TYPHIMURIUM, Strain/Indicator: TA1535, Metabolic Activation: RAT, LIVER, S-9, AROCLOR 1254, Method: STANDARD PLATE) was “inactive; negative”, the mutagenic call (Test System: AMES SALMONELLA TYPHIMURIUM, Strain/Indicator: TA1537, Metabolic Activation: NONE, Method: STANDARD PLATE) was “inactive; negative” and the mutagenic call (Test System: AMES SALMONELLA TYPHIMURIUM, Strain/Indicator: TA1537, Metabolic Activation: RAT, LIVER, S-9, AROCLOR 1254, Method: STANDARD PLATE) was “inactive; negative”. For the same molecule, the mutagenic call (Test System: AMES SALMONELLA TYPHIMURIUM, Strain/Indicator: TA1538, Metabolic Activation: NONE, Method: STANDARD PLATE) was “inactive; negative”, the mutagenic call (Test System: AMES SALMONELLA TYPHIMURIUM, Strain/Indicator: TA1538, Metabolic Activation: RAT, LIVER, S-9, AROCLOR 1254, Method: STANDARD PLATE) was “inactive; negative” and the mutagenic call (Test System: CHO/HGPRT, Strain/Indicator: CHO-K1-BH4, Metabolic Activation: NONE, Method: PREINCUBATION) was “inactive; negative”. The mutagenic call (Test System: CHO/HGPRT, Strain/Indicator: CHO-K1-BH4, Metabolic Activation: RAT, LIVER, S-9, AROCLOR 1254, Method: PREINCUBATION) was “inactive; negative”, the mutagenic call (Test System: E. COLI, Strain/Indicator: WP2, Metabolic Activation: NONE, Method: STANDARD PLATE) was “inactive; negative” and the mutagenic call (Test System: E. COLI, Strain/Indicator: WP2, Metabolic Activation: RAT, LIVER, S-9, AROCLOR 1254, Method: STANDARD PLATE) was “inactive; negative”.
